Assays:
Type in all cases: in vivo, human
[1] = tested on: patients with a first clinical episode suggestive of multiple sclerosis; experiment: Time to conversion to CDMS, randomized double-blind placebo-controlled study; conditions: for Hazard ratio (95% CI), time to conversion to CDMS: Cox proportional hazard model; for Number of patients who were censored (time to conversion to CDMS) / Number of patients with conversion to CDMS: number (%); for Kaplan-Meier estimates of probability of conversion to CDMS (95% CI): ITT
Source text: (§1) Methodology: This was a multi-center, multinational, randomized, placebo-controlled, double blind, parallel group (3 groups) study stratified by center and baseline monofocal/multifocal status.
(§2) Diagnosis and criteria for inclusion: Patients with a first acute or subacute, well-defined neurological event consistent with demyelination with onset of MS symptoms occurring within 90 days of randomization; and abnormal MRI with 2 or more T2 lesions at least 3 mm in diameter that are characteristic of MS.
Efficacy/pharmacodynamics: The primary efficacy variable was time to CDMS defined by the occurrence of a relapse: new neurological abnormality separated by at least 30 days from onset of a preceding clinical event, present for at least 24 hours and occurring in the absence of fever or known infection.
(§3) Statistical methods: Analysis population: Efficacy analyses were based on the intent-to-treat (ITT) population consisting of all randomized patients, as randomized, who had at least 1 day exposure to study medication.
Efficacy analysis: The primary analysis of time to conversion to CDMS was performed using Cox regression model with treatment, region, and baseline monofocal/multifocal status as independent variables. The assessment of efficacy was based on (pairwise) hazard rate ratio comparisons of each active dose of teriflunomide versus placebo. Two-sided 95% confidence intervals of the hazard rates ratio were provided for each teriflunomide treatment effect estimate versus placebo. The log-rank test was provided as supportive.
(§4) Multiplicity procedure: Step down approach was used for multiplicity adjustment for 2 doses of teriflunomide and the primary and key secondary endpoints. Treatment comparison of teriflunomide 14 mg vs. placebo in time to conversion to CDMS was tested at 5% significance level. If significant, comparison of teriflunomide 7 mg vs. placebo in time to conversion to CDMS was tested at 5% significance level. If significant, comparison of teriflunomide 14 mg vs. placebo for the key secondary endpoint was tested at 5% significance level. If significant, comparison of teriflunomide 7 mg vs. placebo for the key secondary endpoint was tested at 5% significance level.

[2] = tested on: patients with a first clinical episode suggestive of multiple sclerosis; experiment: Study treatment discontinuation and tolerability, same study
Experimental: as §1
454 (73.9%) patients completed 108 weeks of study treatment or entered the extension: 71.6% in the placebo group, 73.2% in the teriflunomide 7 mg group, and 75.5% in the teriflunomide 14 mg group. […] The mean (±SD) age was 32.1 (±8.5) years and the study population was primarily Caucasian (96.1%).

[3] = tested on: patients with a first clinical episode suggestive of multiple sclerosis; experiment: Confirmed MS relapse / annualized relapse rate (ARR), same study; conditions: for Unadjusted annualized relapses rate / Total number of relapses / Number of patients with ≧1 relapses: No / Number of relapses: 0 (patients) / Number of relapses: 1 (patients) / Number of relapses: 2 (patients) / Number of relapses: >=3 (patients): ITT; for Number of patients with ≧1 relapses: Yes / Number of patients with ≧1 relapses: No / Number of relapses: 0 (patients) / Number of relapses: 1 (patients) / Number of relapses: 2 (patients) / Number of relapses: >=3 (patients): number (%); for Risk reduction of on-treatment adjusted ARR relative to placebo: non-statistically significant
Source text: as §1, §2, §3
(§5) The key secondary endpoint was analyzed using the same Cox regression model. ARR was analyzed using a Poisson regression model with robust error variance including the number of confirmed relapses with their onset between randomization date and last dose date as the response variable, treatment, region, and baseline monofocal/multifocal status as covariates, and log transformed standardized exposure duration as an offset variable.

[4] = tested on: patients with a first clinical episode suggestive of multiple sclerosis; experiment: Time to conversion to DMS (dissemination of MRI lesions in time or a relapse), same study; conditions: for Hazard ratio (95% CI), time to conversion to DMS: Cox proportional hazard model; for Number of patients with conversion to DMS / Number of patients who were censored (time to conversion to DMS) / Number of patients with conversion to DMS: Dissemination of MRI lesion in time / Number of patients with conversion to DMS: Relapse: number (%); for Number of patients who were censored (time to conversion to DMS) / Number of patients with conversion to DMS: Dissemination of MRI lesion in time / Number of patients with conversion to DMS: Relapse / Kaplan-Meier estimates of probability of conversion to DMS (95% CI): ITT
Source text: as §1, §2, §3, §5, §4

[5] = 14 mg once daily, ITT (N = 214)
[6] = 7 mg once daily, randomized population (N = 205)
[7] = 14 mg once daily, randomized population (N = 216)

## C/C(O)=C(\C#N)C(=O)Nc1ccc(C(F)(F)F)cc1 [teriflunomide, (Z)-2-cyano-3-hydroxy-but-2-enoic acid-(4′-trifluoromethylphenyl)-amide]
[1]; 7 mg once daily vs placebo, P-value 0.0271, log-rank P 0.0422
  Hazard ratio (95% CI), time to conversion to CDMS: 0.628
[1]; 7 mg once daily, ITT (N = 203)
  Number of patients who were censored (time to conversion to CDMS): 164 (80.8%)
[1]; 7 mg once daily, ITT population (N = 203)
  Number of patients with conversion to CDMS: 39 (19.2%)
[1]; 7 mg once daily, at 24 weeks
  Kaplan-Meier estimates of probability of conversion to CDMS (95% CI): 0.087
[1]; 7 mg once daily, at 48 weeks
  Kaplan-Meier estimates of probability of conversion to CDMS (95% CI): 0.142
[1]; 7 mg once daily, at 108 weeks
  Estimated cumulative rate of conversion to CDMS: 27.6%
  Kaplan-Meier estimates of probability of conversion to CDMS (95% CI): 0.276
[1]; 7 mg once daily, p=0.0271
  Reduction of the risk of conversion to CDMS compared to placebo: 37.2%
[1]; 14 mg once daily vs placebo, P-value 0.0087, log-rank P 0.0133
  Hazard ratio (95% CI), time to conversion to CDMS: 0.574
[1]; [5]
  Number of patients who were censored (time to conversion to CDMS): 176 (82.2%)
[1]; 14 mg once daily, ITT population (N = 214)
  Number of patients with conversion to CDMS: 38 (17.8%)
[1]; 14 mg once daily, at 24 weeks
  Kaplan-Meier estimates of probability of conversion to CDMS (95% CI): 0.090
[1]; 14 mg once daily, at 48 weeks
  Kaplan-Meier estimates of probability of conversion to CDMS (95% CI): 0.137
[1]; 14 mg once daily, at 108 weeks
  Estimated cumulative rate of conversion to CDMS: 24.0%
  Kaplan-Meier estimates of probability of conversion to CDMS (95% CI): 0.240
[1]; 14 mg once daily, p=0.0087
  Reduction of the risk of conversion to CDMS compared to placebo: 42.6%
[2]; [6]
  Study treatment discontinuation: Adverse event (number of patients): 25
  Study treatment discontinuation: Death (number of patients): 0
  Study treatment discontinuation: Lack of efficacy: (2.9%)
  Study treatment discontinuation: Lack of efficacy (number of patients): 6
  Study treatment discontinuation: Progressive Disease: (0.5%)
  Study treatment discontinuation: Progressive Disease (number of patients): 1
[2]; [7]
  Study treatment discontinuation: Adverse event (number of patients): 18
  Study treatment discontinuation: Death (number of patients): 0
  Study treatment discontinuation: Lack of efficacy: (5.6%)
  Study treatment discontinuation: Lack of efficacy (number of patients): 12
  Study treatment discontinuation: Progressive Disease (number of patients): 0
[2]; both doses (7 mg and 14 mg once daily)
  Tolerability / safety profile: well tolerated with a manageable safety profile
[3]; 7 mg once daily vs placebo, P-value 0.0541
  Adjusted annualized relapse rate, Relative risk (95% CI): 0.669
[3]; 7 mg once daily vs placebo, P-value 0.0576
  Adjusted annualized relapse rate, Risk difference (95% CI): −0.094
[3]; 7 mg once daily
  Unadjusted annualized relapses rate: 0.209
  Number of patients with ≧1 relapses: No: 161 (79.3%)
  Number of relapses: 0 (patients): 161 (79.3%)
  Number of relapses: 1 (patients): 33 (16.3%)
  Number of relapses: 2 (patients): 7 (3.4%)
  Number of relapses: >=3 (patients): 2 (1.0%)
[3]; 7 mg once daily, ITT (N = 203)
  Number of patients with ≧1 relapses: Yes: 42 (20.7%)
[3]; 7 mg once daily, 258.5 patient-years followed
  Total number of relapses: 54
[3]; 7 mg once daily, p=0.0541
  Risk reduction of on-treatment adjusted ARR relative to placebo: 33.1%
[3]; 14 mg once daily vs placebo, P-value 0.0579
  Adjusted annualized relapse rate, Relative risk (95% CI): 0.681
[3]; 14 mg once daily vs placebo, P-value 0.0628
  Adjusted annualized relapse rate, Risk difference (95% CI): −0.091
[3]; 14 mg once daily
  Unadjusted annualized relapses rate: 0.208
  Number of patients with ≧1 relapses: No: 169 (79.0%)
  Number of relapses: 0 (patients): 169 (79.0%)
  Number of relapses: 1 (patients): 33 (15.4%)
  Number of relapses: 2 (patients): 10 (4.7%)
  Number of relapses: >=3 (patients): 2 (0.9%)
[3]; [5]
  Number of patients with ≧1 relapses: Yes: 45 (21.0%)
[3]; 14 mg once daily, 288.9 patient-years followed
  Total number of relapses: 60
[3]; 14 mg once daily, p=0.0579
  Risk reduction of on-treatment adjusted ARR relative to placebo: 31.9%
[4]; 7 mg once daily vs placebo, P-value 0.0020, log-rank P 0.0028
  Hazard ratio (95% CI), time to conversion to DMS: 0.686
[4]; 7 mg once daily, ITT (N = 203)
  Number of patients with conversion to DMS: 125 (61.6%)
[4]; 7 mg once daily
  Number of patients who were censored (time to conversion to DMS): 78 (38.4%)
  Number of patients with conversion to DMS: Dissemination of MRI lesion in time: 110 (54.2%)
  Number of patients with conversion to DMS: Relapse: 15 (7.4%)
[4]; 7 mg once daily, at 24 weeks
  Kaplan-Meier estimates of probability of conversion to DMS (95% CI): 0.457
[4]; 7 mg once daily, at 48 weeks
  Kaplan-Meier estimates of probability of conversion to DMS (95% CI): 0.573
[4]; 7 mg once daily, at 108 weeks
  Estimated cumulative rate of conversion to DMS (dissemination of MRI lesions in time or confirmed relapse): 73.3%
  Kaplan-Meier estimates of probability of conversion to DMS (95% CI): 0.733
[4]; 7 mg once daily, p=0.0020
  Reduction of the risk of conversion to DMS (dissemination of MRI lesions in time or a relapse) compared to placebo: 31.4%
[4]; 14 mg once daily vs placebo, P-value 0.0003, log-rank P 0.0002
  Hazard ratio (95% CI), time to conversion to DMS: 0.651
[4]; [5]
  Number of patients with conversion to DMS: 136 (63.6%)
[4]; 14 mg once daily
  Number of patients who were censored (time to conversion to DMS): 78 (36.4%)
  Number of patients with conversion to DMS: Dissemination of MRI lesion in time: 111 (51.9%)
  Number of patients with conversion to DMS: Relapse: 25 (11.7%)
[4]; 14 mg once daily, at 24 weeks
  Kaplan-Meier estimates of probability of conversion to DMS (95% CI): 0.460
[4]; 14 mg once daily, at 48 weeks
  Kaplan-Meier estimates of probability of conversion to DMS (95% CI): 0.578
[4]; 14 mg once daily, at 108 weeks
  Estimated cumulative rate of conversion to DMS (dissemination of MRI lesions in time or confirmed relapse): 71.5%
  Kaplan-Meier estimates of probability of conversion to DMS (95% CI): 0.715
[4]; 14 mg once daily, p=0.0003
  Reduction of the risk of conversion to DMS (dissemination of MRI lesions in time or a relapse) compared to placebo: 34.9%
